Assay results published in patent US8465783B2, “Production of potassium magnesium citrate and its applications” (Gadot Biochemical Industries Ltd., priority 2008, dated 2013).

Experiments:
Format in all cases: physicochemical
[1] = Magnesium retention in soy milk on standing (Mg content in upper layer); settings: for Mg content: 1 liter, after addition during agitation (initial); for Mg content in upper layer: after retention of two days without agitation
Procedure: 3 g of material obtained in Example 1 were added to 1 liter of Soy milk during agitation.
3 g of material obtained in Example 2 were added to 1 liter of Soy milk during agitation.
Potassium magnesium citrate was prepared according to U.S. Pat. No. 4,985,593. 5.6 g Of the prepared material were added to 1 liter of soy milk and the samples stored refrigerated.
2.2 g of Tri magnesium citrate nona hydrate were added to 1 liter of soy milk during the agitation.
2.2 g of Tri magnesium citrate nona hydrate and 0.2 g of Kappa Carragenan were added to 1 liter of soy milk during the agitation.
2.2 g of Tri magnesium citrate nona hydrate and 2.2 g of tri potassium citrate were added to 1 liter of soy milk during the agitation.

[2] = Magnesium retention in cow milk on standing (Mg content in upper layer)
Procedure: 3 g of material obtained in Example 1 were added to 1 liter of cow milk during agitation.

[3] = Long-term magnesium retention in UHT-treated soy milk, stored refrigerated (Mg content in upper level)
Procedure: 120 g of material obtained in Example 1 were added to 40 liters of soy milk, after agitation the mixture passed the well known (in the art) UHT treatment and samples were collected and stored refrigerated.

## O=C([O-])CC(O)(CC(=O)[O-])C(=O)[O-].O=C([O-])CC(O)(CC(=O)[O-])C(=O)[O-].[K+].[K+].[K+].[K+].[Mg+2] [Potassium magnesium citrate]
[1]; 5.6 g per 1 liter
  initial concentration of Mg: 373 mg/L
[1]; stored refrigerated, after 48 hours of retention
  Mg content in the upper level: 372 mg/L

## O.O.O.O.O.O.O.O.O.O=C([O-])CC(O)(CC(=O)[O-])C(=O)[O-].O=C([O-])CC(O)(CC(=O)[O-])C(=O)[O-].[Mg+2].[Mg+2].[Mg+2] [Tri magnesium citrate nona hydrate]
[1]
  Mg content: 475 mg/L
  Mg content in upper layer: 307 mg/L
[1]; two days without agitation
  Magnesium sediment during two days: 35 percents

## Magnesium Potassium Citrate [Example 1]
[1]
  Mg content: 445 mg/L
  Mg content in upper layer: 444 mg/L
[2]; 1 liter, after addition during agitation (initial)
  Mg content: 297 mg/L
[2]; after retention of two days without agitation
  Mg content in upper layer: 289 mg/L
[3]; after 1 week
  Mg content in the upper level: 471 mg/L
[3]; after 2 weeks
  Mg content in the upper level: 470 mg/L
[3]; after 3 weeks
  Mg content in the upper level: 471 mg/L
[3]; after 4 weeks
  Mg content in the upper level: 470 mg/L
[3]; after 5 weeks
  Mg content in the upper level: 462 mg/L
[3]; after 6 weeks
  Mg content in the upper level: 468 mg/L
[3]; after 7 weeks
  Mg content in the upper level: 470 mg/L
[3]; after 8 weeks
  Mg content in the upper level: 468 mg/L
[3]; after 9 weeks
  Mg content in the upper level: 467 mg/L
[3]; after 10 weeks
  Mg content in the upper level: 465 mg/L
[3]; after 11 weeks
  Mg content in the upper level: 471 mg/L
[3]; after 12 weeks
  Mg content in the upper level: 465 mg/L
[3]; after 13 weeks
  Mg content in the upper level: 466 mg/L
[3]; initial
  Mg content in the upper level: 468 mg/L

## Magnesium Potassium Citrate [Example 2]
[1]
  Mg content: 547 mg/L
  Mg content in upper layer: 545 mg/L
